The text below walks through data of paper PMC5062083, “Development of a one-pot assay for screening and identification of Mur pathway inhibitors in Mycobacterium tuberculosis” (Scientific Reports, 2016).

Where two headings read alike, the source gives them in different places. Where only a bound is given, the exact number is not on record here.

One data set has as its target MurF (Mycobacterium tuberculosis, UniProt P9WJL1). As to the kind of experiment: inhibition of individual Mur enzyme: MurF. The class given is biochemical. How it is done: (§1) Each Mur ligase reaction was performed at 37 °C with an incubation period of 1 h. To measure the activity of MurC, the completed MurB reaction was supplemented with 1 mM L-Alanine, 10 mM MgCl2 and 1 mM ATP. MurD-F ligase activities were performed sequentially, supplementing the prior reaction with 1 mM each of the required substrate (D-Glutamate, meso-Diaminopimelic acid and D -Alanine-D-Alanine, respectively). The control reaction contained all the components except the enzyme that was being tested (e.g. the control reaction for MurC assay contained all the components except MurC). For MurD and MurF reaction, purified MBP at 1 μg concentration was added to the reaction mixture instead of the enzymes. Estimation of net Pi was done as previously described in the MurA assay.
(§2) Tested compounds at various concentrations (5–100 μM) were pre-incubated with enzymes for 15 mins, followed by the addition of remaining constituents of the assay. The final reaction mixture was incubated for 30 mins at 37 °C. To assess specific inhibition of Mur ligases, each of the ligase was pre-incubated with inhibitors separately and then added to the one-pot reaction mixture. The net Pi released was calculated as described earlier. In the ‘no drug’ control reaction, the organic solvent (DMSO) used in dissolving inhibitory compounds was added at 5% concentration to the one-pot assay, while Isoniazid, a standard anti-TB drug with no known effect on Mur activity, was inculded as another control to ascertain the specificity of the tested inhibitors in the study.

The test system of a further data set is MurE from E.coli. On the set-up: method as in PMID 25851408. The settings on record: range stated jointly for MurE and MurF; cited from earlier work.
The target of the next data set is MurD (Mycobacterium tuberculosis, UniProt P9WJL5). The data set is described as follows: inhibition of individual Mur enzyme: MurD. The class given is biochemical. The note with it: for remaining activity at 100 µM: at 100 μM compound, vs 'no drug' control (5% DMSO), read-out: RA (residual activity), MurD. How it is done:
as §1, §2

Another data set deals with MurE (Mycobacterium tuberculosis, UniProt P9WJL3). As to the kind of experiment: inhibition of individual Mur enzyme: MurE. The class given is biochemical.
The next data set concerns the target MurA (Mycobacterium tuberculosis, UniProt P9WJM1). As to the kind of experiment: inhibition of individual Mur enzyme: MurA. The class given is biochemical. The note with it: for remaining activity at 100 µM: at 100 μM compound, vs 'no drug' control (5% DMSO), read-out: RA (residual activity), MurA. How it is done:
The reaction was performed in a micro-titer plate at 37 °C for 30 minutes and terminated by the addition of Pi Colorlock™ Assay reagent. Absorbance was measured at 630 nm and the amount of Pi released was calculated from the standard phosphate curve. […] The control reactions contained all the components except MurA. The net Pi was calculated by subtracting total Pi in the control reaction from the total Pi after the completion of the assay. To get a large assay window and to avoid saturation of Pi, optimization of assays were carried out at substrate concentrations so as not to exceed the assay signal beyond 2.0 absorbance units as recommended by the manufacturer of PiColorlock™ Assay kit.
as §2

Data set [1] concerns Mur pathway (MurA-MurF) enzymes from Mtb. As to the kind of experiment: one-pot assay reconstructing the Mur pathway (Pi release), inhibitor studies. The data set is classed as biochemical, Mycobacterium tuberculosis. The note with it: for Percentage inhibition, one-pot assay: at 100 μM concentration of compound; for IC50: six compound concentrations 5-100 μM, 15 min pre-incubation, 30 min at 37 °C, 5% DMSO control.

For the next data set, the target named is MurB (Mycobacterium tuberculosis, UniProt P9WJL9). The data set is described as follows: inhibition of individual Mur enzyme: MurB. The class given is biochemical. The settings on record: for remaining activity at 100 µM: at 100 μM compound, vs 'no drug' control (5% DMSO), read-out: RA (residual activity), MurB. On the procedure: To assay MurB activity, the MurA reaction after 30 mins of incubation was supplemented with 10 mM KCl, 0.2 mM NADPH and 60 nM of MurB enzyme in a total volume of 100 μl. The absorbance at 340 nm was monitored over 5 min to calculate the rate of NADPH oxidation. The control reaction contained all the components except MurB.
as §2

Another data set addresses MurC (Mycobacterium tuberculosis, UniProt P9WJL7). As to the kind of experiment: inhibition of individual Mur enzyme: MurC. The class given is biochemical. The settings on record: for remaining activity at 100 µM: at 100 μM compound, vs 'no drug' control (5% DMSO), read-out: RA (residual activity), MurC. How it is done:
as §1, §2

In another data set the test system is C=C(OP(=O)(O)O)C(=O)O. The data set is described as follows: purified protein, by the assay type. The note with it: pH 7.0; 37.0 °C.
Data set [2] relates to Mur pathway (MurA-MurF) enzymes from Mtb. The data set is described as follows: ESI-MS analysis of one-pot assay with inhibitor. The settings on record: Fig. S5. The class given is biochemical, Mycobacterium tuberculosis.

MurC, sequence (P9WJL7 whole entry): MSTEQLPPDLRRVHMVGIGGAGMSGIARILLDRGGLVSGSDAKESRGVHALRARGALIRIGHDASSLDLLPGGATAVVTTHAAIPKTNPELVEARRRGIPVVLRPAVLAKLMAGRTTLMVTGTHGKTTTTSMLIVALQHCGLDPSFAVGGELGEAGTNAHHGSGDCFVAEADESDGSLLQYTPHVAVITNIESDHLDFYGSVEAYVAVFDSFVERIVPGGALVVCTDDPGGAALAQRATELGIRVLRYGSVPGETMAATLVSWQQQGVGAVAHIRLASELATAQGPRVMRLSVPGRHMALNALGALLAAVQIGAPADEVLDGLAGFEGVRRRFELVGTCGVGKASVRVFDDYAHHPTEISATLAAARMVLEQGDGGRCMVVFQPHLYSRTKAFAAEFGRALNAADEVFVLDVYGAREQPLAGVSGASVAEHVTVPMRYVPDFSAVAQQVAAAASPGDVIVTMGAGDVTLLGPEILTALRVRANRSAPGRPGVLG
MurE, sequence (P9WJL3 whole entry): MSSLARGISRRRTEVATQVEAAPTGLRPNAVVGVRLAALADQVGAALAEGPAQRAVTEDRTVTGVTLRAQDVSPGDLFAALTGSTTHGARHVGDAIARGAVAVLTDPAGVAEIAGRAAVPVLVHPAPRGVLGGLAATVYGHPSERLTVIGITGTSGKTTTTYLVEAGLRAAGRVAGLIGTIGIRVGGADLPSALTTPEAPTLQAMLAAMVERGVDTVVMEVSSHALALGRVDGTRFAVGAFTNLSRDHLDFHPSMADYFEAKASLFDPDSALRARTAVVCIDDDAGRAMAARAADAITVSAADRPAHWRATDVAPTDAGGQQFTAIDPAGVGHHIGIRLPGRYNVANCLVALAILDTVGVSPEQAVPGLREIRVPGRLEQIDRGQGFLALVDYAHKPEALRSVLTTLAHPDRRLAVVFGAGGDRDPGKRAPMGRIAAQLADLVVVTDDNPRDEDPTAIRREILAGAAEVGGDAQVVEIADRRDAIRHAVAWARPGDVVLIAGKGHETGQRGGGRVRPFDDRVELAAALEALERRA
MurD, sequence (P9WJL5 whole entry): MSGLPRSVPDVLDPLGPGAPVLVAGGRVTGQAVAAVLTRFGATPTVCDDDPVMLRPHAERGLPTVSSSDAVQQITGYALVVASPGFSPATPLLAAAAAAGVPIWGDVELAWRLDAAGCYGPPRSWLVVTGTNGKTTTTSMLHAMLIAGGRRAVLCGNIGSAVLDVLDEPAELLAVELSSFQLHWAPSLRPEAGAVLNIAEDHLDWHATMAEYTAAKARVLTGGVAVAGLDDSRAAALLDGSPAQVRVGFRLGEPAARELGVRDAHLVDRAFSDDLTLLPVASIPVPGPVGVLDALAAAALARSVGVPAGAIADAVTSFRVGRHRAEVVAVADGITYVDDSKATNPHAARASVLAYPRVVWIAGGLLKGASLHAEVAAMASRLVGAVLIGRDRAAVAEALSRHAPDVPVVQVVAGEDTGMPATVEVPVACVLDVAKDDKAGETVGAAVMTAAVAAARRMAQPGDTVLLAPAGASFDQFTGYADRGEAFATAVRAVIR
MurB, sequence (P9WJL9 whole entry): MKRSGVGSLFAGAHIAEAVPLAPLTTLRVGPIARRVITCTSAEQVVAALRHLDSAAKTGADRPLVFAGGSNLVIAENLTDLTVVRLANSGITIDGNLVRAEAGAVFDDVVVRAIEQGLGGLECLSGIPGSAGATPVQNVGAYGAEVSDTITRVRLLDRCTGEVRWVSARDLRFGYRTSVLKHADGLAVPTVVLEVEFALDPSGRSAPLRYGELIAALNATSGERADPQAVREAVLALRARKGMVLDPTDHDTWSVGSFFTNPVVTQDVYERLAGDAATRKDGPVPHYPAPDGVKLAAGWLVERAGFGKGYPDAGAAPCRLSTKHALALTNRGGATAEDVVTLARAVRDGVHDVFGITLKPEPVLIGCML
MurF, sequence (P9WJL1 whole entry): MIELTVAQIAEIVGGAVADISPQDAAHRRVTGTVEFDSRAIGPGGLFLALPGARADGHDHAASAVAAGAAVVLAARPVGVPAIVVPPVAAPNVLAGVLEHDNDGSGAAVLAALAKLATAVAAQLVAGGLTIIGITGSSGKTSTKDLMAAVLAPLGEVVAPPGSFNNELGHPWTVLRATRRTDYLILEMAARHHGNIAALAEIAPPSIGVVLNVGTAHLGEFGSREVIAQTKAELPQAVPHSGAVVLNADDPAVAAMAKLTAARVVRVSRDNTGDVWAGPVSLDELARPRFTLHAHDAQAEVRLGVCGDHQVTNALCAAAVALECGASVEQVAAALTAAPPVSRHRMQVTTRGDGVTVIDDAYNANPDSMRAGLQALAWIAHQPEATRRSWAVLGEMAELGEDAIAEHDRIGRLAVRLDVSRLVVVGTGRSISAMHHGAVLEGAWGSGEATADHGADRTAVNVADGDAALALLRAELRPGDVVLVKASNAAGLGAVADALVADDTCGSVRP
MurA, sequence (P9WJM1 whole entry): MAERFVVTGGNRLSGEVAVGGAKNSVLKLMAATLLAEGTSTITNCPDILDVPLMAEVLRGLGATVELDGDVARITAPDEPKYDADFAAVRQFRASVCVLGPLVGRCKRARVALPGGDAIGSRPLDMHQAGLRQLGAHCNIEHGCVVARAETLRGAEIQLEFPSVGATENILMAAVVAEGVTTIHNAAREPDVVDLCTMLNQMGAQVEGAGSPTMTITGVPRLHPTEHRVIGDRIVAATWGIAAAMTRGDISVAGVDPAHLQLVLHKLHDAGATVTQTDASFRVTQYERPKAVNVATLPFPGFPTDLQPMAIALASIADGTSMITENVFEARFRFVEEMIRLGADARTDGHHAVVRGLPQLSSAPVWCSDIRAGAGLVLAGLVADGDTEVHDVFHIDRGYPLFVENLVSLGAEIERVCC

In general, IC50 refers to the midpoint of a concentration-inhibition curve. `O=C(O)c1cc(-c2ccc(/C=C3/SC(=S)N(c4ccc([N+](=O)[O-])cc4)C3=O)o2)ccc1Cl` [Compound 3]: the IC50 is 45.4 µM against MurF, 11 to 16 µM in the data set on MurE from E.coli, 61.6 µM on MurE and 19.6 µM in data set [1]. On MurD, the “inhibition of MurD (in words)” value is “marginal inhibition”. Moreover, the remaining activity at 100 µM at MurD was 88%; at MurA, 75%; on MurB, > 100%; at MurC it was 66%. Also, the “inhibition of MurA (in words)” value against MurA is recorded as “marginal inhibition”. In addition, the “Percentage inhibition, one-pot assay” value in data set [1] was found to be 97%. In addition, the “inhibition of MurB (in words)” value on MurB is “no inhibition”. The “inhibition of MurC (in words)” value against MurC is “marginal inhibition”.
A word on the Km: it is the substrate concentration at which the rate is half of its maximum. For orientation: Vmax means the top rate of the reaction or transport when substrate is in excess. “Mtb MurA (Mycobacterium tuberculosis H37Rv)”: in the data set with C=C(OP(=O)(O)O)C(=O)O, the Michaelis constant (Km) was found to be 527.8 µM and the Vmax stood at 0.173 µM/min.
Consider `N[C@@H]1CON=C1O` [D-Cycloserine, reference compound], for which the IC50 came to 67.1 µM at MurF; 97 µM at MurE (six compound concentrations 5-100 μM, read-out: IC50, MurE); 74 µM in [1]. Further, the remaining activity at 100 µM at MurD is 72%; on MurA it was > 100%; at MurB it was > 100%; on MurC it was 64%. The “final product (UDP-MurNAc pentapeptide) formation in one-pot assay by ESI-MS” value in [2] is “inhibition of final product formation”.
As to `O=C(O)c1cc(-c2ccc(/C=C3/SC(=S)N(c4cccc([N+](=O)[O-])c4)C3=O)o2)ccc1Cl` [Compound 4], the IC50 at MurF was 25.8 µM; with MurE from E.coli, 11 to 16 µM; against MurE it was 17 µM; in data set [1], 8.25 µM. For the same molecule, at MurD, the “inhibition of MurD (in words)” value was “marginal inhibition”. The remaining activity at 100 µM was 85% at MurD, > 100% at MurA, > 100% on MurB and 73% at MurC. Moreover, on MurA, the “inhibition of MurA (in words)” value is “did not inhibit”. Further, the “Percentage inhibition, one-pot assay” value in data set [1] is 93%. Moreover, on MurB, the “inhibition of MurB (in words)” value is reported as “did not inhibit”. In addition, the “inhibition of MurC (in words)” value against MurC is “marginal inhibition”.
